Measurements taken from paper PMC3753754, “Andrographis paniculata Extract and Andrographolide Modulate the Hepatic Drug Metabolism System and Plasma Tolbutamide Concentrations in Rats” (Evidence-based Complementary and Alternative Medicine : eCAM, 2013).
Marks after values point to notes of the source that are not given here.

Key:
CYP4A = assay: Lauric acid 12-hydroxylation in liver microsomes of treated rats; assay type: in vivo; conditions: rat liver microsomes; oral 2 g/kg APE or 50 mg/kg AND daily for 5 days
Description: (§1) Liver was homogenized (1 : 4, w/v) in an ice-cold potassium phosphate buffer (pH 7.4) containing 7.4 mM K2HPO4, 2.6 mM KH2PO4, 1.15% KCl, and 1 mM phenylmethylsulfonyl fluoride (PMSF). Tissue homogenates were centrifuged at 10,000 ×g for 30 min at 4°C. The resulting supernatant was then centrifuged at 105,000 ×g for 1 h at 4°C. The microsomes thus obtained were washed several times to get rid of possible tolbutamide contamination and this can avoid tolbutamide interference of CYP activity, and the microsomes were then suspended in potassium phosphate buffer (pH 7.7) containing 7.5 mM K2HPO4, 14.5 mM KH2PO4, and 1 mM EDTA. […] Metabolites of each CYP enzyme reaction were determined by LC/MS as reported previously. The contents of total CYP and cytochrome b5 were quantified by the method of Omura and Sato [29]. Enzyme activity is expressed as picomoles of metabolite formed per minute per milligram of protein. The NADPH-CYP reductase activity was measured as described by Phillips and Langdon with the use of cytochrome c as the substrate. The microsomal protein concentration was determined by using a Coomassie Plus protein assay kit (Pierce, Rockford, IL, USA).

P-glycoprotein = assay: Immunoblot and RT-PCR of hepatic P-glycoprotein in treated rats; assay type: in vivo; conditions: rat liver; APE or andrographolide for 5 days
Description: For P-glycoprotein expression, liver tissue was homogenized with phosphate-buffered saline containing 0.2% Triton X-100, 5 mM EDTA, and 1 mM PMSF. The homogenates were then centrifuged at 10,000 ×g for 30 min at 4°C. Proteins in the resulting supernatants were electrophoretically separated and were immunoblotted with P-glycoprotein antibody. The immunoreactive bands were detected by using an enhanced chemiluminescence plus Western blotting detection reagent (Amersham Biosciences, Boston, MA, USA).
Total RNA in liver samples was extracted by using the Trizol reagent (1 : 20, w/v). […] The sequences for the PCR primers were as follows: for CYP1A1 (forward: 5′-[…]-3′; reverse: 5′-[…]-3′), CYP1A2 (forward: 5′-[…]-3′; reverse: 5′-[…]-3′), CYP2C6 (forward: 5′-[…]-3′; reverse: 5′-[…]-3′), CYP2C11 (forward: 5′-[…]-3′; reverse: 5′-[…]-3′), CYP2D1 (forward: 5′-[…]-3′; reverse: 5′-[…]-3′), CYP2E1 (forward: 5′-[…]-3′; reverse: 5′-[…]-3′), CYP3A1 (forward: 5′-[…]-3′; reverse: 5′-[…]-3′), CYP3A2 (forward: 5′-[…]-3′; reverse: 5′-[…]-3′), and P-glycoprotein (forward: 5′-[…]-3′; reverse: 5′-[…]-3′). […] The PCR amplicons were then electrophoresed in 1% agarose gels containing 40 mM Tris/20 mM glacial acetic acid/2 mM EDTA buffer, and the relative densities of the PCR products were quantitated by use of Image Gauge software (Fujifilm, Tokyo, Japan). […]

CYP2D = assay: Dextromethorphan O-deethylation in liver microsomes of treated rats; assay type: in vivo; conditions: rat liver microsomes; oral 2 g/kg APE or 50 mg/kg AND daily for 5 days
Description: as §1

[1] = Glucose tolerance test after tolbutamide in high-fat diet-induced obese mice; assay type: in vivo, C57BL/6 mice
Description: Eleven-month-old high-fat diet-fed (45% of energy from fat; Research Diet Inc., New Brunswick, NJ) C57BL/6 mice were obtained from the National Health Research Institute (Miaoli, Taiwan). Control mice were orally administered 0.5% methyl cellulose (10 mL/kg). […] After the 5th daily dose, the mice were deprived of food overnight. On day 6, a 20 mg/kg oral dose of tolbutamide, as a solution in Cremophor EL/ethanol/water (30/10/60, v/v/v), was administered to each mouse. Thirty minutes later, a 1 g/kg dose of glucose, as a solution in water, was administered orally according to the method described by Zong et al.. Serial blood samples were collected up to 8 h after the glucose dose from each mouse. The animals were then killed by exsanguination and the livers collected.
(§2) Plasma glucose was determined by use of enzymatic kits purchased from Audit Diagnostics Co. (Cork, Ireland). Plasma aspartate aminotransferase (AST) and alanine aminotransferase (ALT) activities were measured by using commercial kits purchased from Randox Laboratories (Antrim, UK).

CYP3A = assay: Midazolam 1-hydroxylation in liver microsomes of treated rats; assay type: in vivo; conditions: rat liver microsomes; oral 2 g/kg APE or 50 mg/kg AND daily for 5 days
Description: as §1

Cytochrome P450 = assay: Total CYP content in liver microsomes of treated rats; assay type: in vivo; conditions: rat liver microsomes; oral 2 g/kg APE or 50 mg/kg AND daily for 5 days
Description: as §1

[2] = Plasma aminotransferases (AST, ALT) of treated rats; assay type: in vivo, Sprague-Dawley rats
Description: All animals were killed by exsanguination via the abdominal aorta while under carbon dioxide (CO2/O2, 70%/30%) anesthesia. Heparin was used as the anticoagulant. Plasma was separated from the blood by centrifugation (1750 ×g) at 4°C for 20 min. The liver from each animal was excised, weighed, and stored at −80°C. This research has received ethical approval from the institutional animal ethics committee of China Medical University, Taichung, Taiwan.
as §2

[3] = obese mice, 2 g/kg APE or 50 mg/kg AND for 5 days, day 6 tolbutamide 20 mg/kg oral, 30 min later glucose 1 g/kg oral
[4] = rats, oral 2 g/kg APE or 50 mg/kg AND daily for 5 days, mean ± SD, n = 5

Lauric acid 12-hydroxylase (4A) (CYP4A): 214 ± 88 pmol/min/mg protein
Protein and mRNA levels of membrane transporter P-glycoprotein (P-glycoprotein): only a minor effect
Dextromethorphan O-deethylase (2D) (CYP2D): 79.1 ± 30.4 pmol/min/mg protein
Midazolam 1-hydroxylase (3A) (CYP3A): 320 ± 84^ab pmol/min/mg protein
Cytochrome P450 content (Cytochrome P450): 674 ± 64^b pmol/mg protein
SMILES: C=C1CC[C@@H]2[C@](C)(CO)[C@H](O)CC[C@@]2(C)[C@@H]1C/C=C1/C(=O)OC[C@H]1O [andrographolide, Andrographolide]
Hypoglycemic effect of tolbutamide in a glucose tolerance test ([1]; high-fat diet-induced obese mice treated with APE or andrographolide): not changed
Plasma glucose, time 0 h [1, 3]: 80 ± 7^a mg/dL
Plasma glucose, time 0.25 h [1, 3]: 152 ± 37^a mg/dL
Plasma glucose, time 0.5 h [1, 3]: 124 ± 28^ab mg/dL
Plasma glucose, time 1 h [1, 3]: 99 ± 29 mg/dL
Plasma glucose, time 2 h [1, 3]: 88 ± 28 mg/dL
Plasma glucose, time 4 h [1, 3]: 76 ± 17^a mg/dL
Plasma glucose, time 8 h [1, 3]: 80 ± 17^a mg/dL
Fasting blood glucose level ([1]; obese mice, APE or andrographolide for 5 days, fasted overnight): 80 ± 7 mg/dL
Area under the plasma glucose concentration versus time curve (AUC0–8 h) ([1]; obese mice, APE or andrographolide for 5 days, then tolbutamide and glucose load): 171 ± 42 mg·h/dL
Effect on rat liver function ([2]; 2 g/kg APE and 50 mg/kg AND, plasma AST and ALT): no deleterious effect
Plasma aminotransferases, ALT [2, 4]: 15.8 ± 8.2 U/L
Plasma aminotransferases, AST [2, 4]: 27.7 ± 4.4 U/L
